We go through three compounds from PMC3445516 (PLoS ONE, 2012).

What all share (experiment): Ambit kinase profiling, competition binding
The target in one assay is T1, CAMK4 (Homo sapiens, UniProt Q16566).
T1 construct: purchased Ambit Biosciences (KINOMEscan)
T1 sequence (Q16566 1-473): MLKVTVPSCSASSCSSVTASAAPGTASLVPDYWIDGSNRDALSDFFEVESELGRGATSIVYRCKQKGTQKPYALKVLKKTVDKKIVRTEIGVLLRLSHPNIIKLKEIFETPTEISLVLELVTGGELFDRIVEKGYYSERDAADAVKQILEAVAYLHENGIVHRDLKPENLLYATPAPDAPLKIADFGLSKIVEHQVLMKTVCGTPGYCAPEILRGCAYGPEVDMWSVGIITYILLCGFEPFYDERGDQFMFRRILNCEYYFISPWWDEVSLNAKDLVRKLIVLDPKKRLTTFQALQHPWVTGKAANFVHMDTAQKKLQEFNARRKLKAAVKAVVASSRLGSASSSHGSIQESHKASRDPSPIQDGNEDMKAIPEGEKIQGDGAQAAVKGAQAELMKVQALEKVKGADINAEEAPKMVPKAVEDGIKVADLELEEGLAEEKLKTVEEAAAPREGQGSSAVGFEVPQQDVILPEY
The following applies: for competition: 10 µM. As for the experimental part: (§1) Also included in the kinase profile are four isoforms of PKC (δ, ε, η, θ) and eight isoforms of CAMKs (CAMKIα, δ, γ; CAMKIIα, β, δ, γ; CAMK4).
(§2) The global kinase profiling experiment was performed by Ambit Biosciences.

Another assay deals with T2, CDK7 (Homo sapiens, UniProt P50613).
T2 construct: purchased Ambit Biosciences (KINOMEscan)
T2 sequence (P50613 whole entry): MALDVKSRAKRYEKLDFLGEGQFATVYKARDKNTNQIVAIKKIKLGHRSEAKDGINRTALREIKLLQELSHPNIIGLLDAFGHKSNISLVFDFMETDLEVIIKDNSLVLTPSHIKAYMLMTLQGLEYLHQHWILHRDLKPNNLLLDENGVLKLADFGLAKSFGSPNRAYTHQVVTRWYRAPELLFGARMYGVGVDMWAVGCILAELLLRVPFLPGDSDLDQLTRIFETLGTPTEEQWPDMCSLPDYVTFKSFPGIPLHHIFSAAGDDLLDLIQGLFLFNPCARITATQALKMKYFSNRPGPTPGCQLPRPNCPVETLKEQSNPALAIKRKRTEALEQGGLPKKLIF
How it is done: as §1, §2

The target of another assay is T3, ROS1 (Homo sapiens, UniProt P08922).
T3 construct: purchased Ambit Biosciences (KINOMEscan)
T3 sequence (P08922 28-2347): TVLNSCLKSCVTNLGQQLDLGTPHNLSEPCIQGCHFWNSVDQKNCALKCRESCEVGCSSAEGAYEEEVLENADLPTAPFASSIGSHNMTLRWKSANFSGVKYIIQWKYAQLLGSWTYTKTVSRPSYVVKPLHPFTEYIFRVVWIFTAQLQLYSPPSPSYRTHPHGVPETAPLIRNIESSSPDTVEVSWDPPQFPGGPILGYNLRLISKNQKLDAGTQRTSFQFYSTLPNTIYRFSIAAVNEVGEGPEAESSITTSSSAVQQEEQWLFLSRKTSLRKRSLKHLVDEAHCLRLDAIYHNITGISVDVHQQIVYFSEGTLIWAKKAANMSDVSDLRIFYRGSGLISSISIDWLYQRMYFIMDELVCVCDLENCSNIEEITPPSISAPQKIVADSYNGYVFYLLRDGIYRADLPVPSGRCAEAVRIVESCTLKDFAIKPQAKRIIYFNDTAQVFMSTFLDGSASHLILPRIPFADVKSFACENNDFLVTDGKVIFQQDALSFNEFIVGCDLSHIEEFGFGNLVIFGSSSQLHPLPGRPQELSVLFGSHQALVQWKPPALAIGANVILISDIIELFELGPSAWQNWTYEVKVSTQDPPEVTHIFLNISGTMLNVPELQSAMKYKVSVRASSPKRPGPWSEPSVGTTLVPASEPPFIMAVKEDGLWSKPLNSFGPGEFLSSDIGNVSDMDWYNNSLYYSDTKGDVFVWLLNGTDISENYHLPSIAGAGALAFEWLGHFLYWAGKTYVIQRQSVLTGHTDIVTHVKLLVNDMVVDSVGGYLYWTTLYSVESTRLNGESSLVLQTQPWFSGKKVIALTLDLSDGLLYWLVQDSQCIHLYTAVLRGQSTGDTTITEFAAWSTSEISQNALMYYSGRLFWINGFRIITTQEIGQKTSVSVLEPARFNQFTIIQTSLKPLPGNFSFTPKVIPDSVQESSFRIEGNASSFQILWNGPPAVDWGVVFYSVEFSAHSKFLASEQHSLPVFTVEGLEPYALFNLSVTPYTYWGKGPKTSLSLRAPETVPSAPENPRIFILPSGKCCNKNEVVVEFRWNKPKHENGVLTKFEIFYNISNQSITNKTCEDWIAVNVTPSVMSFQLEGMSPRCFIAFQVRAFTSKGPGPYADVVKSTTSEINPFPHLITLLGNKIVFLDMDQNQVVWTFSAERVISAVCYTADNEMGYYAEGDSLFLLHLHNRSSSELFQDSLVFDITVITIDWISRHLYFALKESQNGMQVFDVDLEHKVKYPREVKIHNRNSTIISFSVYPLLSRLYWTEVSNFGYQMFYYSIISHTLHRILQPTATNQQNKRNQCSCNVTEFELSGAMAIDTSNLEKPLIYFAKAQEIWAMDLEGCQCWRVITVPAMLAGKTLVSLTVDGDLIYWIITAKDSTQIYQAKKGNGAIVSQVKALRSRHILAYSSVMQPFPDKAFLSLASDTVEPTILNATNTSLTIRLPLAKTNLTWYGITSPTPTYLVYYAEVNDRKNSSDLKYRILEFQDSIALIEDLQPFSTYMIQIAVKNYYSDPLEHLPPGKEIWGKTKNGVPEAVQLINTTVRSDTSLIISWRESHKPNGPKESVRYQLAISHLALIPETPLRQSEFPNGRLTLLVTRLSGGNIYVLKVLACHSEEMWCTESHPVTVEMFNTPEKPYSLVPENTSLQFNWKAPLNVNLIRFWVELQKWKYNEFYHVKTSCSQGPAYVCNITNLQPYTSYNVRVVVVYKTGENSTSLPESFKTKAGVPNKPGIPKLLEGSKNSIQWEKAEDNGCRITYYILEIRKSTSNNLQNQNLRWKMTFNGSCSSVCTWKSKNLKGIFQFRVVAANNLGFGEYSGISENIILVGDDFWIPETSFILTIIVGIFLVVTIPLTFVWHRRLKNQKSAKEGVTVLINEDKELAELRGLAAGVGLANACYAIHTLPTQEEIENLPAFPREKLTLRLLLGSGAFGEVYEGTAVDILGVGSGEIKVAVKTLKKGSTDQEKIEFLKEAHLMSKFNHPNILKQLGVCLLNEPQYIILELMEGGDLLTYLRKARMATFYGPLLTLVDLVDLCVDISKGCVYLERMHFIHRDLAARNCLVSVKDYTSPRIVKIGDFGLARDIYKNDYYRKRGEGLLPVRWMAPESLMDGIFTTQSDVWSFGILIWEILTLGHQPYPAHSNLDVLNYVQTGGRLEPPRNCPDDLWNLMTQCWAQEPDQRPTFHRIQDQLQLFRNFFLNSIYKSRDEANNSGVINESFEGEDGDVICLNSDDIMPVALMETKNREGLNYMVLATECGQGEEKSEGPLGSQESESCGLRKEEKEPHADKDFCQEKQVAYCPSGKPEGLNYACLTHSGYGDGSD
As for the experimental part: as §1, §2

The next assay concerns the target T4, PAK7 (Homo sapiens, UniProt Q9P286).
T4 construct: purchased Ambit Biosciences (KINOMEscan)
How it is done: as §1, §2

In a further assay the target is T5, TTK (Homo sapiens, UniProt P33981).
T5 construct: purchased Ambit Biosciences (KINOMEscan)
T5 sequence (P33981 1-857): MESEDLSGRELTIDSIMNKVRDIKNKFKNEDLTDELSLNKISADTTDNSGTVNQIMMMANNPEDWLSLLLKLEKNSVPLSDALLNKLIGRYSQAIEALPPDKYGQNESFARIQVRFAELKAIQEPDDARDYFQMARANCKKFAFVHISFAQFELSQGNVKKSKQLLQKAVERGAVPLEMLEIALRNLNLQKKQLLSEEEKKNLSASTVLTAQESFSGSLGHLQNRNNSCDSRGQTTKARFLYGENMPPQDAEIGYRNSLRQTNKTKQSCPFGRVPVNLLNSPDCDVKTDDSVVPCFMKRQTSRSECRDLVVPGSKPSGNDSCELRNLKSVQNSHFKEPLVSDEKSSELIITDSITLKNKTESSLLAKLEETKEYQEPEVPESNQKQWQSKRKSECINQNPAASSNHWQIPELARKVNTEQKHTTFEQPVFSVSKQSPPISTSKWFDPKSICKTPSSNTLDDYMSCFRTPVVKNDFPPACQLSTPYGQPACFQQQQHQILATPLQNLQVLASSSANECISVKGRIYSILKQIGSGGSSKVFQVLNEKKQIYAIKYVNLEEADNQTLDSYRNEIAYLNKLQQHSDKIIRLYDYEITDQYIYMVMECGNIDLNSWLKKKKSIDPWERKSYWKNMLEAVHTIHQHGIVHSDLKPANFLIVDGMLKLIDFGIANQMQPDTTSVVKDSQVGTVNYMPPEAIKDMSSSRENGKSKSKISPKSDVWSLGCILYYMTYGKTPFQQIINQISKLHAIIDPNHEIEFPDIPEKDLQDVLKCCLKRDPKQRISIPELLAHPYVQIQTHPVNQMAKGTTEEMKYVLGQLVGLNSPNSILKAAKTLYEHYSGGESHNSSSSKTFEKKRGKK
As for the experimental part: as §1, §2

A further assay has as its target T6, DDR2 (Homo sapiens, UniProt Q16832).
T6 construct: purchased Ambit Biosciences (KINOMEscan)
T6 sequence (Q16832 22-855): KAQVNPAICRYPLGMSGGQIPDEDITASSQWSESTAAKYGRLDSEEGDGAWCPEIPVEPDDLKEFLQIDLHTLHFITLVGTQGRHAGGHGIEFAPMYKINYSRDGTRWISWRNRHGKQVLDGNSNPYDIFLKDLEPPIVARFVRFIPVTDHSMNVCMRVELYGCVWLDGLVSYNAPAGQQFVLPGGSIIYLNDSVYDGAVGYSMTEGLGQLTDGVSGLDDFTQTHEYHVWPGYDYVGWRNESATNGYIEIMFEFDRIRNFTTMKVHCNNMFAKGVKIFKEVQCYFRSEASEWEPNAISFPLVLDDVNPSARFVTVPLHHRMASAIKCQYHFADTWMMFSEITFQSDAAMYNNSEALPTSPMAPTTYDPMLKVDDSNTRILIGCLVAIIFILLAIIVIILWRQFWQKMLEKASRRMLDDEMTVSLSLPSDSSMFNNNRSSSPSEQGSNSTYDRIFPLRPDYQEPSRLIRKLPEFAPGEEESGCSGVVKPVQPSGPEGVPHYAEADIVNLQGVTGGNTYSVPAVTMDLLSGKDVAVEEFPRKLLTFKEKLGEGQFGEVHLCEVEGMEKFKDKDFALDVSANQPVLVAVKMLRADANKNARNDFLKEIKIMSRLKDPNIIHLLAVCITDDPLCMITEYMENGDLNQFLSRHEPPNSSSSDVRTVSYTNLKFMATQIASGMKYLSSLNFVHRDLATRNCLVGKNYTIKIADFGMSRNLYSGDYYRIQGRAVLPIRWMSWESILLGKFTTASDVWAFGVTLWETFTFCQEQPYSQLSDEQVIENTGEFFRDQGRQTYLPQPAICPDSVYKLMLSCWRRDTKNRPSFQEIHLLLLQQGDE
How it is done:
as §1, §2

For a further assay, the target named is T7, CAMKIα (Homo sapiens, UniProt Q14012).
T7 construct: purchased Ambit Biosciences (KINOMEscan)
T7 sequence (Q14012 whole entry): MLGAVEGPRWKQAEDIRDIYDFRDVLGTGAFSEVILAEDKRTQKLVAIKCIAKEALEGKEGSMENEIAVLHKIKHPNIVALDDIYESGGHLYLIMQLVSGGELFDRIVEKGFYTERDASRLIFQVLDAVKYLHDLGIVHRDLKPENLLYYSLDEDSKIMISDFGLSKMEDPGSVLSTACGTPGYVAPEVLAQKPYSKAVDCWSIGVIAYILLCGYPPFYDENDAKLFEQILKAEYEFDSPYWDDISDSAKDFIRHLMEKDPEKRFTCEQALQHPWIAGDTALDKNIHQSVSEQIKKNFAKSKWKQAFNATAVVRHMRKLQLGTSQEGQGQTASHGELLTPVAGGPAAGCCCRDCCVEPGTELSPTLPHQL
The following applies: for competition: CAMKIα, 10 µM. As for the experimental part: as §1, §2

The target of the next assay is T8, CLK4 (Homo sapiens, UniProt Q9HAZ1).
T8 construct: purchased Ambit Biosciences (KINOMEscan)
T8 sequence (Q9HAZ1 whole entry): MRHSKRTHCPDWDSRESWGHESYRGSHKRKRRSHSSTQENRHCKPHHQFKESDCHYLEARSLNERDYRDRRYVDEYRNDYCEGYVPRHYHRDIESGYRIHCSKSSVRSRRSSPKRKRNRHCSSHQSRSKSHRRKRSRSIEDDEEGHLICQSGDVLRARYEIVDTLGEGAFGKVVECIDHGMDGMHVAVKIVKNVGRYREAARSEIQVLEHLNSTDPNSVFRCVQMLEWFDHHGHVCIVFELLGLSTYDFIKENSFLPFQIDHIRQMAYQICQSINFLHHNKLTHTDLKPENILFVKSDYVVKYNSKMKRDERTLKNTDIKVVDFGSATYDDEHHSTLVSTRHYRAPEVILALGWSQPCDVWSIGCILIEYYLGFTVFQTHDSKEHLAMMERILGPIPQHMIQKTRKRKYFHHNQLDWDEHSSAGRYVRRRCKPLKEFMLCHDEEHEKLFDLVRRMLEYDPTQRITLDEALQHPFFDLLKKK
As for the experimental part:
as §1, §2

In assay [1] the target is T9, EGFR(L747-S752del, P753S) (Homo sapiens, UniProt P00533, DEL747-752/P753S).
T9 construct: purchased Ambit Biosciences (KINOMEscan)
The following applies: for % Competition: 10 µM. How it is done:
as §1, §2

Another assay addresses T10, p38-alpha (Homo sapiens, UniProt Q16539).
T10 construct: purchased Ambit Biosciences (KINOMEscan)
The following applies: for % Competition: 10 µM. As for the experimental part:
as §1, §2

Each structure is given as a SMILES string. Read-outs that look alike come from different tables or passages of the source.

T10 sequence (Q16539 whole entry): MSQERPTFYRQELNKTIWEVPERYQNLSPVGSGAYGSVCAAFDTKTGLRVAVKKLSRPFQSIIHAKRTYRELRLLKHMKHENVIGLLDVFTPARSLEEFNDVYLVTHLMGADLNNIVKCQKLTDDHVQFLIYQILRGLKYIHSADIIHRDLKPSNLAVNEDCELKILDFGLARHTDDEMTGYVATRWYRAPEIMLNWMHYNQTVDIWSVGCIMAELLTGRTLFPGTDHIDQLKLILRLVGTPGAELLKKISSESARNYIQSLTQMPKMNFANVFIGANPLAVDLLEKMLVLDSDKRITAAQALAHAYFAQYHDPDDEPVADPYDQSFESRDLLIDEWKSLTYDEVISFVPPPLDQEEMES
T4 sequence (Q9P286 whole entry): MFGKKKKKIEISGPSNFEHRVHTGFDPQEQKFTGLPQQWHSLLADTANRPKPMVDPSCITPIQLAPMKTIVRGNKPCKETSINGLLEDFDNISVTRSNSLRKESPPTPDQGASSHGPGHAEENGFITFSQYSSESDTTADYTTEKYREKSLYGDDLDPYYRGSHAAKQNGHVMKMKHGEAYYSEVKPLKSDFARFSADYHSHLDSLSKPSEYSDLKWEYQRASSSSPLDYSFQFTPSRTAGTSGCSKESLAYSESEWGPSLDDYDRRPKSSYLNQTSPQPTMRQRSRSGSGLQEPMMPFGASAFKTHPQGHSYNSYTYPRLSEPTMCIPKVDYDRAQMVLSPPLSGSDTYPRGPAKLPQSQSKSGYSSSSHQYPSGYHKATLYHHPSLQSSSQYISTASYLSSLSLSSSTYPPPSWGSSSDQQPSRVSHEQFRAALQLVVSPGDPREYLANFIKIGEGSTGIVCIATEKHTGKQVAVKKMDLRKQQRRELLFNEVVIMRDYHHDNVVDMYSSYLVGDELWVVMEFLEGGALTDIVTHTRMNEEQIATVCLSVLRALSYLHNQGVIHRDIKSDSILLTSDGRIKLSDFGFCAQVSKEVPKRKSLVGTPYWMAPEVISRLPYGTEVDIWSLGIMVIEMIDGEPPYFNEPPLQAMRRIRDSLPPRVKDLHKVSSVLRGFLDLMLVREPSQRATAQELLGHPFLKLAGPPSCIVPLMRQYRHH

For `Fc1ccc(-c2c(-c3ccncc3)[nH]c3nccnc23)cc1` [Compound 122], the competition on CAMK4 and at CAMKIα was below 50% each time. Also, the inhibition at 10 µM at CDK7 (CDK7, 10 µM, read-out: % Competition) stood at 100%; at ROS1 (ROS1, 10 µM, read-out: % Competition), 80%; at PAK7 (PAK7, 10 µM, read-out: % Competition), 86%; on TTK (TTK, 10 µM, read-out: % Competition), 88%; on DDR2 (DDR2, 10 µM, read-out: % Competition), 100%; on CLK4 (CLK4, 10 µM, read-out: % Competition) it was 88%. Besides, the figures for the “% Competition” value (in [1]; at p38-alpha) were 95% and 100%, respectively.

In the case of `Fc1ccc(-c2c(-c3ccncc3)[nH]c3nccnc23)cc1` [RO1155697-000-005], the inhibition at 10 µM at CAMK4 (compound concentration 10 uM, read-out: Percent Competition) was below 50%; at CDK7 (CDK7, compound concentration 10 uM, read-out: Percent Competition) it was 100%; at ROS1 (ROS1, compound concentration 10 uM, read-out: Percent Competition) it was 80%; at PAK7 (PAK7, compound concentration 10 uM, read-out: Percent Competition), 86%; at TTK (TTK, compound concentration 10 uM, read-out: Percent Competition), 88%; on DDR2 (DDR2, compound concentration 10 uM, read-out: Percent Competition), 100%. For the same compound, the inhibition at 10 µM at CAMKIα (CAMK1, compound concentration 10 uM, read-out: Percent Competition) was below 50%; on CLK4 (CLK4, compound concentration 10 uM, read-out: Percent Competition), 88%. The “Percent Competition” value was 95% in assay [1] (compound concentration 10 uM) and 100% on p38-alpha (compound concentration 10 uM).

In the case of `CC(O)CNc1cc(-c2[nH]c3cccnc3c2-c2ccc(F)cc2)ccn1` (stereo not drawn) [Compound 140], the competition at CAMK4 and on CAMKIα was below 50% in each case. Besides, the inhibition at 10 µM on CDK7 (read-out: % Competition) was below 50%; on ROS1 (read-out: % Competition) it was below 50%; at PAK7 (read-out: % Competition), below 50%; on TTK (read-out: % Competition) it was 90%; at DDR2 (read-out: % Competition) it was 67%; on CLK4 (read-out: % Competition), below 50%. In addition, the “% Competition” value was 84% in [1] and 100% on p38-alpha.
